In patent publication US9127044B2, “Cyclic depsipeptides” (NOVARTIS AG, priority 2007, dated 2015):
Like-named read-outs stand apart in the source and are kept apart here.

Tests used:
[1] = biological target: T1, Human neutrophil elastase (Homo sapiens, UniProt P08246); test: HNE inhibitory activity in vitro (fluorescence-quenched substrate); format: biochemical
T1 construct: purchased Elastin Products Company, Inc. (EPC, Owensville, USA) SE563
T1 sequence (P08246 30-267): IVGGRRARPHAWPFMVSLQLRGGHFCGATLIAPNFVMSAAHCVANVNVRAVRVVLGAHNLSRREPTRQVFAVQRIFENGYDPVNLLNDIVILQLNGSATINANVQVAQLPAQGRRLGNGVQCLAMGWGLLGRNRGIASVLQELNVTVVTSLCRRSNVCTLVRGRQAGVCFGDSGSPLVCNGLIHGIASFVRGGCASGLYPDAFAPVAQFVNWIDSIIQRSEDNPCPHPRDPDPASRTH
Description: Human neutrophil elastase (cat. no. SE563) is purchased from Elastin Products Company, Inc. (EPC, Owensville, USA). The dry powder (purity >95% stated by the supplier) was dissolved in 20 mM sodium acetate buffer, pH 5.0, 50% (v/v) glycerol, and frozen at −80° C. in aliquots.
The fluorescence-quenched substrate (DABCYL-Ser-Glu-Val^Asn-Leu-Asp-Ala-Glu-Phe-EDANS, where ^ indicates the scissile bond, identified by MS analysis) was purchased from Bachem AG (Bubendorf, Switzerland), and kept as a 5 mM stock solution in DMSO at −20° C. All other chemicals were of analytical grade.
Enzymatic reactions were conducted in 100 mM Tris/HCl buffer at pH 7.5, containing 500 mM NaCl, and 0.05% (w/v) CHAPS.
All protein and peptide containing solutions are handled in siliconized tubes (Life Systems Design, Merenschwand, Switzerland).
(§1) The compound solutions as well as the enzyme and the substrate solutions are transferred to the 384-well plates (black Cliniplate; cat. no. 95040020 Labsystems Oy, Finland) by means of a CyBi-Well 96-channel pipettor (CyBio AG, Jena, Germany).
(§2) For fluorescence intensity (FI) measurements an Ultra Evolution reader (TECAN, Maennedorf, Switzerland) is used. The instrument is equipped with a combination of a 350 nm (20 nm bandwidth) and a 500 nm (25 nm bandwidth) bandpass filter for fluorescence excitation and emission acquisition, respectively. To increase the signal:background ratio, an appropriate dichroic mirror is employed. The optical filters and the dichroic mirror are purchased from TECAN. The fluorophores in each well are excited by three flashes per measurement.

[2] = biological target: human kallikrein 7 (Homo sapiens, UniProt P49862); test: Kallikrein-7 inhibitory activity in vitro (fluorescence-quenched substrate); format: biochemical
Description: (§3) IC50 for human kallikrein can be measured using the fluorescence-quenched substrate Ac-Glu-Asp(EDANS)-Lys-Pro-Ale-Leu-Phe^Arg-Leu-Gly-Lys(DABCYL)-Glu-NH2 (where ^ indicates the scissile bond, identified by MS analysis) which can be purchased from Biosyntan (Berlin, Germany). Enzymatic reactions are conducted in 50 mM sodium citrate buffer at pH 5.6 containing 150 mM NaCl and 0.05% (w/v) CHAPS. For the determination of IC50 values the assay is performed at room temperature in 384-well plates. All final assay volumes are 30 μl. Test compounds are dissolved in 90% (v/v) DMSO/water and diluted in water (containing 0.05% (w/v) CHAPS) to 3-times the desired assay concentration. The 11 final compound concentrations are: 0.3 nM, 1 nM, 3 nM, 10 nM, 30 nM, 100 nM, 300 nM, 1 μM, 3 μM, 10 μM and 30 μM. For each assay, 10 μl water/CHAPS (±test compound) are added per well, followed by 10 μl protease solution (diluted with 1.5× assay buffer). The protease concentration in final assay solution is 0.2 nM (according to the enzyme concentrations determined by the Bradford method). After 1 hour of incubation at room temperature, the reaction is started by addition of 10 μl substrate solution (substrate dissolved in 1.5× assay buffer, final concentration is 2 μM). […] The IC50 value is calculated from the plot of percentage of inhibition vs. inhibitor concentration using non-linear regression analysis software (XLfit, Vers. 4.0; ID Business Solution Ltd., Guildford, Surrey, UK).
The fluorescence-quenched substrate Ac-Glu-Asp(EDANS)-Lys-Pro-Ale-Leu-Phe^Arg-Leu-Gly-Lys(DABCYL)-Glu-NH2 (where ^ indicates the scissile bond, identified by MS analysis) is purchased from Biosyntan (Berlin, Germany) and kept as a 5 mM stock solution in DMSO at −20° C. All other chemicals are of analytical grade.
Enzymatic reactions are conducted in 50 mM sodium citrate buffer at pH 5.6 containing 150 mM NaCl and 0.05% (w/v) CHAPS.
as §1, with “All protein and peptide containing solutions are handled in siliconized tubes (Life Systems Design, Merenschwand, Switzerland). The” for “The”
as §2
as §3, with “For” for “IC50 for human kallikrein can be measured using the fluorescence-quenched substrate Ac-Glu-Asp(EDANS)-Lys-Pro-Ale-Leu-Phe^Arg-Leu-Gly-Lys(DABCYL)-Glu-NH2 (where ^ indicates the scissile bond, identified by MS analysis) which can be purchased from Biosyntan (Berlin, Germany). Enzymatic reactions are conducted in 50 mM sodium citrate buffer at pH 5.6 containing 150 mM NaCl and 0.05% (w/v) CHAPS. For”, “volumes were” for “volumes are”, “concentration was” for “concentration is”

[3] = Table 11, read-out: human neutrophile elastase IC 50
[4] = Table 11, read-out: hKallikrein7 IC 50

human kallikrein 7, sequence (P49862 30-253): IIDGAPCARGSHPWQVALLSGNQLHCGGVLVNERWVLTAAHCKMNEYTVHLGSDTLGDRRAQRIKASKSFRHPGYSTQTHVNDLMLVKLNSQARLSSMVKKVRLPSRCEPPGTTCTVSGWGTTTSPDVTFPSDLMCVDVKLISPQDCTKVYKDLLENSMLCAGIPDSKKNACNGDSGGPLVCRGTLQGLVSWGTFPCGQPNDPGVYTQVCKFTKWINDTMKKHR

IC50 [1, 3] [nM]	IC50 [2, 4] [nM]	SMILES	IC50 [1] [nM]	IC50 ([2]; IC50 for human kallikrein 7) [nM]	IC50 ([2]; hKallikrein7 IC 50, Table 11) [nM]
55	6	CCC(C)C1NC(=O)C(Cc2ccc(O)cc2)N(C)C(=O)C(C(C)CC)N2CCCC(NC(=O)C(CC(C)C)NC(=O)C(NC(=O)C(CCC(N)=O)NC(=O)C(C)C)C(C)OC1=O)C2=O (stereo not drawn) [example 4]	–	–	–
–	–	CCCOC1CCC2NC(=O)C(CC(C)C)NC(=O)C(NC(=O)C(CCC(N)=O)NC(=O)C(C)C)C(C)OC(=O)C(C(C)CC)NC(=O)C(Cc3ccc(O)cc3)N(C)C(=O)C(C(C)CC)N1C2=O (stereo not drawn) [example 5]	5	9	8
–	–	CCCCCCCCOC1CCC2NC(=O)C(CC(C)C)NC(=O)C(NC(=O)C(CCC(N)=O)NC(=O)C(C)C)C(C)OC(=O)C(C(C)CC)NC(=O)C(Cc3ccc(O)cc3)N(C)C(=O)C(C(C)CC)N1C2=O (stereo not drawn) [example 6]	55	–	95
–	–	CCC(C)C1NC(=O)C(Cc2ccc(O)cc2)N(C)C(=O)C(C(C)CC)N2C(=O)C(CCC2OCC(F)(F)F)NC(=O)C(CC(C)C)NC(=O)C(NC(=O)C(CCC(N)=O)NC(=O)C(C)C)C(C)OC1=O (stereo not drawn) [example 7]	6	–	50
–	–	CCCCOC1CCC2NC(=O)C(CC(C)C)NC(=O)C(NC(=O)C(CCC(N)=O)NC(=O)C(C)C)C(C)OC(=O)C(C(C)CC)NC(=O)C(Cc3ccc(O)cc3)N(C)C(=O)C(C(C)CC)N1C2=O (stereo not drawn) [example 11]	12	–	6
–	–	CCC(C)C1NC(=O)C(Cc2ccc(O)cc2)N(C)C(=O)C(C(C)CC)N2C(=O)C(CCC2OCC(C)C)NC(=O)C(CC(C)C)NC(=O)C(NC(=O)C(CCC(N)=O)NC(=O)C(C)C)C(C)OC1=O (stereo not drawn) [example 12]	6	–	8.5
–	–	CCC(C)C1NC(=O)C(Cc2ccc(O)cc2)N(C)C(=O)C(C(C)CC)N2C(=O)C(CCC2OCCOC)NC(=O)C(CC(C)C)NC(=O)C(NC(=O)C(CCC(N)=O)NC(=O)C(C)C)C(C)OC1=O (stereo not drawn) [example 13]	4	–	6
–	–	CCC(C)C1NC(=O)C(Cc2ccc(O)cc2)N(C)C(=O)C(C(C)CC)N2C(=O)C(CCC2OCCO)NC(=O)C(CC(C)C)NC(=O)C(NC(=O)C(CCC(N)=O)NC(=O)C(C)C)C(C)OC1=O (stereo not drawn) [example 14]	5	–	10
–	–	CCC(C)C1NC(=O)C(Cc2ccc(O)cc2)N(C)C(=O)C(C(C)CC)N2C(=O)C(CCC2OCCOCCO)NC(=O)C(CC(C)C)NC(=O)C(NC(=O)C(CCC(N)=O)NC(=O)C(C)C)C(C)OC1=O (stereo not drawn) [example 15]	5	–	15
–	–	CCC(C)C1NC(=O)C(Cc2ccc(O)cc2)N(C)C(=O)C(C(C)CC)N2C(=O)C(CCC2OCCOCCOC)NC(=O)C(CC(C)C)NC(=O)C(NC(=O)C(CCC(N)=O)NC(=O)C(C)C)C(C)OC1=O (stereo not drawn) [example 16]	5	–	15
–	–	CCC(C)C1NC(=O)C(Cc2ccc(O)cc2)N(C)C(=O)C(C(C)CC)N2C(=O)C(CCC2OC)NC(=O)C(CC(C)C)NC(=O)C(NC(=O)C(CCC(N)=O)NC(=O)C(C)C)C(C)OC1=O (stereo not drawn) [example 17]	7.5	–	3
–	–	C#CCOC1CCC2NC(=O)C(CC(C)C)NC(=O)C(NC(=O)C(CCC(N)=O)NC(=O)C(C)C)C(C)OC(=O)C(C(C)CC)NC(=O)C(Cc3ccc(O)cc3)N(C)C(=O)C(C(C)CC)N1C2=O (stereo not drawn) [example 18]	2.5	–	5
–	–	CCC(C)C1NC(=O)C(Cc2ccc(O)cc2)N(C)C(=O)C(C(C)CC)N2C(=O)C(CCC2OC)NC(=O)C(CC(C)C)NC(=O)C(NC(=O)C(CCC(=O)OC)NC(=O)C(C)C)C(C)OC1=O (stereo not drawn) [example 20]	8	–	1.5
9	2.5	CCC(C)C1NC(=O)C(Cc2ccc(O)cc2)N(C)C(=O)C(C(C)CC)N2C(=O)C(CCC2O)NC(=O)C(CC(C)C)NC(=O)C(NC(=O)C(CCC#N)NC(=O)C(C)C)C(C)OC1=O (stereo not drawn) [example 21]	–	–	–
40	6	CCC(C)C1NC(=O)C(Cc2ccc(O)cc2)N(C)C(=O)C(C(C)CC)N2CCCC(NC(=O)C(CC(C)C)NC(=O)C(NC(=O)C(CCC#N)NC(=O)C(C)C)C(C)OC1=O)C2=O (stereo not drawn) [example 22]	–	–	–
4	7	CCCOC1CCC2NC(=O)C(CC(C)C)NC(=O)C(NC(=O)C(CCC#N)NC(=O)C(C)C)C(C)OC(=O)C(C(C)CC)NC(=O)C(Cc3ccc(O)cc3)N(C)C(=O)C(C(C)CC)N1C2=O (stereo not drawn) [example 24]	–	–	–
4.5	0.85	CCCCCCOC(=O)Oc1ccc(CC2C(=O)NC(C(C)CC)C(=O)OC(C)C(NC(=O)C(CCC(N)=O)NC(=O)C(C)C)C(=O)NC(CC(C)C)C(=O)NC3CCC(O)N(C3=O)C(C(C)CC)C(=O)N2C)cc1 (stereo not drawn) [example 26]	–	–	–
–	–	CCC(C)[C@@H]1NC(=O)[C@H](Cc2ccc(OC(=O)OCC(C)C)cc2)N(C)C(=O)[C@H](C(C)CC)N2CCCC(NC(=O)[C@H](CC(C)C)NC(=O)[C@@H](NC(=O)[C@H](CCC(N)=O)NC(=O)C(C)C)[C@@H](C)OC1=O)C2=O (stereo partly drawn) [example 27]	20	–	3
30	2.5	CCC(C)C1NC(=O)C(Cc2ccc(OC(=O)OCCOC)cc2)N(C)C(=O)C(C(C)CC)N2CCCC(NC(=O)C(CC(C)C)NC(=O)C(NC(=O)C(CCC(N)=O)NC(=O)C(C)C)C(C)OC1=O)C2=O (stereo not drawn) [example 28]	–	–	–
25	3	CCOC(=O)Oc1ccc(C[C@H]2C(=O)N[C@@H](C(C)CC)C(=O)O[C@H](C)[C@H](NC(=O)[C@H](CCC(N)=O)NC(=O)C(C)C)C(=O)N[C@@H](CC(C)C)C(=O)NC3CCCN(C3=O)[C@@H](C(C)CC)C(=O)N2C)cc1 (stereo partly drawn) [example 29]	–	–	–
300	200	CCCCCCCCOC(=O)Oc1ccc(C[C@H]2C(=O)N[C@@H](C(C)CC)C(=O)O[C@H](C)[C@H](NC(=O)[C@H](CCC(N)=O)NC(=O)C(C)C)C(=O)N[C@@H](CC(C)C)C(=O)NC3CCCN(C3=O)[C@@H](C(C)CC)C(=O)N2C)cc1 (stereo partly drawn) [example 31]	–	–	–

SMILES	IC50 [1, 3] [nM]	IC50 [2, 4] [nM]	IC50 [1] [nM]	IC50 ([2]; IC50 for human kallikrein 7) [nM]	IC50 ([2]; hKallikrein7 IC 50, Table 11) [nM]
CCC(C)C1NC(=O)C(Cc2ccc(OC(=O)OC3CCC4(C)C(=CCC5C4CCC4(C)C(C(C)CCCC(C)C)CCC54)C3)cc2)N(C)C(=O)C(C(C)CC)N2CCCC(NC(=O)C(CC(C)C)NC(=O)C(NC(=O)C(CCC(N)=O)NC(=O)C(C)C)C(C)OC1=O)C2=O (stereo not drawn) [example 30]	4550	1050	–	–	–
